One experiment relates to Staph. aureus. The experiment is described as follows: MIC (CMI) determination in liquid medium. Type of experiment: cell-based. To be noted: pH5, substance alone, 72 h incubation at 30°C. On the procedure: (§1) On a déterminé les CMI en milieu liquide, avec un temps d'incubation de 72 heures à 30°C, à […] (bouillon Trypticase soja tamponné), du Lipacide™ UG seul, du conservateur testé seul, ainsi que du mélange des deux produits La comparaison des résultats consignés dans les tableaux suivants fait apparaître nettement une synergie anti-microbienne qui autorise ainsi une réduction de la concentration nécessaires en conservateurs chimique dans les compositions.
(§2) La composition A est diluée dans l'eau pour obtenir la composition A2 contenant 0,05 % en poids d'undécylènoyl glycine et 0,05 % en poids d'octanoyl glycine et la composition A3 contenant 0,125 % en poids d'undécylènoyl glycine et 0,125 % en poids d'octanoyl glycine.
(§3) On obtient les résultats suivants (CMI à pH5).

The next experiment deals with Aspergillus Niger. The experiment is described as follows: MIC (CMI) determination in liquid medium. Type of experiment: cell-based. Particulars: pH5, substance alone, 72 h incubation at 30°C. On the procedure: as §1, §2, §3

For the compound `CCCCCCCC(=O)NCC(=O)O` [octanoyl glycine], the CMI in the experiment on Staph. aureus is listed as 0,025%; in the experiment with Aspergillus Niger, 2,5%.

As for `C=CCCCCCCCCC(=O)NCC(=O)O` [undécylènoyl glycine], the results for the CMI in the experiment with Staph. aureus and with Aspergillus Niger were 0,01% and 0,25%, respectively.
